# Experimental data taken from patent publication US4824863A, “Antibiotic A80438” (Eli Lilly and Company, priority 1985, dated 1989).
# Residues, ends and D or L forms follow the SMILES beside them.
# Assays:
# [1] = test system: Culture A80438 (Streptomyces bobili NRRL 15971); assay: Antibiotic sensitivity discs on seeded ISP No. 2 agar plates; conditions: sensitivity disc
# [2] = test system: coccidiosis; conditions: alone; Science 122, 244 (1955); cited from earlier work
# [3] = test system: Culture A80438 (Streptomyces bobili NRRL 15971); assay: Resistance to lysozyme; type: cell-based
# Method: Resistance to lysozyme was measured by methods recommended by Gordon and Barnett [R. E. Gordon and D. A. Barnett, "Resistance to Rifampin and Lysozyme of Strains of Some Species of Mycobacterium and Nocardia as a Taxonomic Tool", Int. J. Syst. Bacteriol. 27, 176-178 (1977)].
# [4] = test system: A80438 (Streptomyces bobili NRRL 15971); assay: Streptomycin inhibition (taxonomic comparison); conditions: culture A80438
# [5] = test system: S. bobili; conditions: published descriptions; cited from earlier work
compound,measurement,setting,value
CC(=O)OCC1=C(C(=O)O)N2C(=O)[C@@H](NC(=O)Cc3cccs3)[C@H]2SC1 [cephalothin],Resistance/sensitivity of culture A80438,[1]; 30 μg,resistant
CN(C)C1C(=O)C(C(N)=O)=C(O)C2(O)C(=O)C3=C(O)c4c(O)cccc4C(C)(O)C3CC12 (stereo not shown) [tetracycline],Resistance/sensitivity of culture A80438,[1]; 30 μg,sensitive
CO[C@H]1C[C@H](O[C@H]2[C@H](C)[C@@H](O[C@@H]3O[C@H](C)C[C@H](N(C)C)[C@H]3O)[C@@H](C)C[C@@]3(CO3)C(=O)[C@H](C)[C@@H](O)[C@@H](C)[C@@H](C)OC(=O)[C@@H]2C)O[C@@H](C)[C@@H]1O [oleandomycin],Resistance/sensitivity of culture A80438,[1]; 15 units,sensitive
"CC[C@H](C)[C@H](N)C1=N[C@H](C(=O)N[C@@H](CC(C)C)C(=O)N[C@H](CCC(=O)O)C(=O)N[C@H](C(=O)N[C@H]2CCCCNC(=O)[C@H](CC(N)=O)NC(=O)[C@@H](CC(=O)O)NC(=O)[C@H](Cc3cnc[nH]3)NC(=O)[C@@H](Cc3ccccc3)NC(=O)[C@H]([C@@H](C)CC)NC(=O)[C@@H](CCCN)NC2=O)[C@@H](C)CC)CS1 [bacitracin] (HELM PEPTIDE1{[CC[C@H](C)[C@H](N)C1=N[C@H](C(=O)[*:2])CS1].L.[dE].I.K.[NCCC[C@@H](N[*:1])C(=O)[*:2]].I.[dF].H.[dD].N}$PEPTIDE1,PEPTIDE1,5:R3-11:R2$$$V2.0)",Resistance/sensitivity of culture A80438,[1]; 10 units,sensitive
neomycin,Resistance/sensitivity of culture A80438,[1]; 30 μg,sensitive
"O=C(Nc1ccc([N+](=O)[O-])cc1)Nc1ccc([N+](=O)[O-])cc1 [4,4'-dinitrocarbanilide]",Anticoccidial activity,[2],exhibits anticoccidial activity
CO[C@H]1/C=C/O[C@@]2(C)Oc3c(C)c(O)c4c(O)c(c(/C=N/N5CCN(C)CC5)c(O)c4c3C2=O)NC(=O)/C(C)=C\C=C\[C@H](C)[C@H](O)[C@@H](C)[C@@H](O)[C@@H](C)[C@H](OC(C)=O)[C@@H]1C [rifampin],Resistance/sensitivity of culture A80438,[1]; 5 μg,sensitive
NC[C@H]1O[C@H](O[C@H]2[C@H](O)[C@@H](O[C@H]3O[C@H](CO)[C@@H](O)[C@H](N)[C@H]3O)[C@H](N)C[C@@H]2N)[C@H](N)C[C@@H]1O [tobramycin],Resistance/sensitivity of culture A80438,[1]; 10 μg,sensitive
CN[C@H](CC(C)C)C(=O)N[C@H]1C(=O)N[C@@H](CC(N)=O)C(=O)N[C@H]2C(=O)N[C@H]3C(=O)N[C@H](C(=O)N[C@H](C(=O)O)c4cc(O)cc(O)c4-c4cc3ccc4O)[C@H](O)c3ccc(c(Cl)c3)Oc3cc2cc(c3O[C@@H]2O[C@H](CO)[C@@H](O)[C@H](O)[C@H]2O[C@H]2C[C@](C)(N)[C@H](O)[C@H](C)O2)Oc2ccc(cc2Cl)[C@H]1O [vancomycin],Resistance/sensitivity of culture A80438,[1]; 30 μg,sensitive
CCC[C@@H]1C[C@@H](C(=O)N[C@@H]([C@H]2O[C@H](SC)[C@H](O)[C@@H](O)[C@H]2O)[C@@H](C)O)N(C)C1 [lincomycin],Resistance/sensitivity of culture A80438,[1]; 2 μg,resistant
gentamicin,Resistance/sensitivity of culture A80438,[1]; 10 μg,sensitive
lysozyme,Resistance/sensitivity of culture A80438 to lysozyme,[3],sensitive
[H]/N=C(/N)N[C@H]1[C@H](O)[C@@H](O)[C@H](O[C@@H]2O[C@@H](C)[C@](O)(C=O)[C@H]2O[C@@H]2O[C@@H](CO)[C@H](O)[C@@H](O)[C@@H]2NC)[C@@H](N/C(N)=N\[H])[C@@H]1O [streptomycin],Resistance/sensitivity of culture A80438,[1]; 10 μg,sensitive
same,Streptomycin inhibition,[4],+
same,Streptomycin inhibition,[5],+
CC1(C)S[C@@H]2[C@H](NC(=O)Cc3ccccc3)C(=O)N2[C@H]1C(=O)O [penicillin G],Resistance/sensitivity of culture A80438,[1]; 10 units,resistant
